Results on nine compounds are retold here after patent US20180185302A1, “METHODS FOR DOWNREGULATING APOBEC3B” (Regents of the University of Minnesota, priority 2015, published 2018).

Series [1] concerns APOBEC3B. In words: inhibitor pretreatment before PMA-induced APOBEC3B upregulation in MCF10A cells (RT-qPCR). It is filed as cell-based, human. Particulars: for suppression of PMA-induced APOBEC3B mRNA induction: 30-minute pretreatment with inhibitor, then PMA 25 ng/mL six hours. How it is done: PMA is a well-known agonist of PKC, but it also affects other cellular processes. To determine whether APOBEC3B induction by PMA occurs through PKC signal transduction or an alternative mechanism, we leveraged a panel of existing PKC inhibitors that each vary with respect to class selectivity. MCF10A cells were pre-treated for 30 minutes with varying concentrations of the pan-PKC inhibitor Gö6983 (Gschwendt et al., FEBS Lett. 392:77-80, 1996) and then treated for six hours with PMA (25 ng/mL). […] As additional controls, MCF10A cells were pretreated in parallel with the phosphoinositol 3 kinase (PI3K) inhibitor, LY294002, and the mitogen-activated protein kinase kinase (MEK) inhibitor, U0126, prior to PMA induction (FIGS. 2B and 2C).
(§1) For induction experiments, 2.5×10^5 cells were plated in a 6-well plate 1 day prior to drug treatment. PMA was then added to the media and incubated at 37° C. with 5% CO2 for six hours unless otherwise indicated. Cells were harvested, RNA was extracted, and RT-qPCR was performed as previously reported (Refsland et al. 2010, Nucleic Acids Res 38:4274-4284). For experiments utilizing inhibitors, cells were pretreated with inhibitors 30 minutes prior to PMA induction (25 ng/mL). PMA (Thermo Fisher Scientific, Inc., Waltham, Mass.), cyclohexamide (Acros Organics, Thermo Fisher Scientific, Inc., Waltham, Mass.), Gö6983 (Cayman Chemical co., Ann Arbor, Mich.), LY294002 (EMD Chemicals, Merck KGaA, Darmstadt, Germany), U0126 (EMD Chemicals, Merck KGaA, Darmstadt, Germany), AEB071 (Medchemexpress, Monmouth Junction, N.J.), Gö6976 (Enzo Life Sciences, Inc., Farmingdale, N.Y.), BAY 11-7082 (R&D Systems, INc., Minneapolis, Minn.), and MG132 (Thermo Fisher Scientific, Inc., Waltham, Mass.) were stored as recommended. NIKi/Compound 31 was synthesized as described (Li et al., 2013, Bioorganic & Medicinal Chemistry Letters 23:1238-1244).

Series [2] concerns TNFα. In words: TNFα mRNA expression in PMA-treated MCF10A cells (RT-qPCR). In kind it is cell-based, human. Particulars: titration of inhibitor, compared with APOBEC3B inhibition. As for the experimental part: FIG. 3. Non-canonical NFκB signaling is responsible for APOBEC3B upregulation by PMA. […] MCF10A cells were treated with PMA following a 30-minute pretreatment with the indicated concentrations of each inhibitor. APOBEC3B mRNA expression is reported as the mean of three independent RT-qPCR reactions normalized to TBP (error bars report SD from triplicate assays). (C) Histogram depicting NFκB subunit mRNA levels in MCF10A cells treated with PMA or vehicle control. Expression was determined by RNA-seq and is reported as FKPM and normalized to TBP. […] MCF10A cells were treated with PMA following treatment with varying concentrations of TPCA-1. TNFα (light) and APOBEC3B (dark) mRNA levels are reported as the mean of three independent RT-qPCR reactions normalized to TBP (error bars report SD from triplicate assays). The dotted lines denote previously reported in vitro IC50 values for IKKα and IKKβ inhibition by TPCA-1 (Podolin et al., 2005, J Pharmacol Exp Ther. 312:373-381). (E) Histogram showing the kinetics of NFKBIA upregulation PMA. MCF10A cells were treated with PMA for the indicated times and mRNA values were quantified as in FIG. 3A. […]
Canonical signaling is known to require IKKβ, whereas non-canonical NFκB signaling is strictly dependent on IKKα-catalyzed phosphorylation of p100. […] As an additional control, TNFα, which is regulated by the canonical pathway, was analyzed.

The test system of series [3] is IKKβ (canonical) over IKKα (non-canonical). Particulars: reported in vitro IC50 values (Podolin et al., 2005); cited from earlier work.
Series [4] concerns MCF10A cells. In words: morphology and viability of MCF10A cells under inhibitor. In kind it is cell-based, human. As to conditions: low concentrations of Gö6983 (5 μM range), data not shown. As for the experimental part:
PMA is a well-known agonist of PKC, but it also affects other cellular processes. To determine whether APOBEC3B induction by PMA occurs through PKC signal transduction or an alternative mechanism, we leveraged a panel of existing PKC inhibitors that each vary with respect to class selectivity. MCF10A cells were pre-treated for 30 minutes with varying concentrations of the pan-PKC inhibitor Gö6983 (Gschwendt et al., FEBS Lett. 392:77-80, 1996) and then treated for six hours with PMA (25 ng/mL). […] APOBEC3B was suppressed to background levels with 5 μM Gö6983, as well as higher concentrations (FIG. 2A). […] As additional controls, MCF10A cells were pretreated in parallel with the phosphoinositol 3 kinase (PI3K) inhibitor, LY294002, and the mitogen-activated protein kinase kinase (MEK) inhibitor, U0126, prior to PMA induction (FIGS. 2B and 2C).

Series [5] deals with MCF-7 xenograft tumor. In words: MCF-7 xenograft model for tamoxifen resistance. It is filed as in vivo, mice. The text has this:
Human cancer cell lines, such as those listed above, and many others, upon engraftment into mice (e.g., subcutaneously, intraperotoneally, or otherwise), provide model systems for human tumor evolution, heterogeneity, and drug resistance. For instance, the estrogen-receptor positive breast cancer cell line MCF7L is a model for endocrine therapy and resistance.
The MCF-7 system may be adapted for evaluating APOBEC3 mutagenesis and drug resistance by creating derivative lines expressing low APOBEC3B (e.g., shRNA transduced) and high APOBEC3B (empty vector transduced) using lentivirus transduction followed by selection with 1 μg/ml puromycin for one week (Burns et al., 2013, Nature 494:366-370) and determine whether endogenous APOBEC3B contributes to the development of tamoxifen resistance. Five-million engineered cells are injected subcutaneously (xenografted) into athymic/ovariectomized nude-Foxnlnu (4-5 weeks old, The Jackson Laboratory, Bar Harbor, Me.). Each animal's drinking water is supplemented with 1 μM estradiol to provide continuous hormonal stimulation. The xenografted cells form large tumors within 150 days post-engraftment and depleting endogenous APOBEC3B causes a modest delay in tumor growth (dark square versus dark circle symbols in FIG. 8).

The subject of series [6] is APOBEC3B. In words: PMA induction of APOBEC3B mRNA in MCF10A cells (RT-qPCR). In kind it is cell-based, human. As to conditions: 10 μg/mL cyclohexamide with PMA. How it is done:
A panel of immortalized normal human epithelial cells lines and breast cancer cell lines was treated with PMA or equal amounts of DMSO as a negative control, and previously validated reverse transcription quantitative PCR (RT-qPCR) assays were used to measure mRNA levels of all eleven human APOBEC family members. APOBEC3B mRNA was induced specifically by PMA treatment of several lines including the immortalized normal breast epithelial cell line MCF10A (FIG. 1A and FIG. 6). Under standard cell culture conditions, MCF10A expresses low levels of APOBEC3B and APOBEC3F, even lower levels of APOBEC3G and APOBEC3H, high levels of APOBEC3C, and undetectable levels of all other APOBEC family members.
APOBEC3B was induced with as little as 1 ng/mL PMA, and its induction was dose responsive and near maximal at 25 ng/mL PMA (FIG. 1B, histogram). APOBEC3B mRNA levels correlated with a rise in steady-state protein levels as measured by immunoblotting with a rabbit anti-APOBEC3B monoclonal antibody (described in U.S. Provisional Patent Application No. 62/186,109. filed Jun. 29, 2015) and with enzymatic activity as measured by a gel-based single-stranded DNA cytosine deamination assay (FIG. 1B). […] APOBEC3B protein and activity levels lagged shortly behind mRNA levels and persisted through the duration of the time course (FIG. 1C, immunoblot and polyacrylamide gel). APOBEC3B upregulation may be a direct result of signal transduction as the kinetics of upregulation were not affected by simultaneously treating cells with the protein translation inhibitor cyclohexamide (FIG. 1D).
as §1

SMILES strings stand for the structures. Entries after “also recorded” stand apart in the source; their conditions may differ. Residues, ends and D or L forms follow the SMILES beside them. *: point of attachment. Cbz = O=C(OCc1ccccc1)*

For the compound `NC(=O)Nc1sc(-c2ccc(F)cc2)cc1C(N)=O` [TPCA-1], the “suppression of PMA-induced APOBEC3B mRNA induction” value (“suppression” for short) in series [1] is listed as “near the IC50 for IKKα, not IKKβ; also recorded: inhibited closer to the reported IC50 of IKKα”. Also, in series [2], the “inhibition of TNFα expression” value is “inhibited by much lower concentrations”. For the same compound, the “selectivity for IKKβ (canonical) over IKKα (non-canonical)” value in series [3] is listed as 22 fold.

As for `N#CC(=C(/N)Sc1ccccc1N)/C(C#N)=C(\N)Sc1ccccc1N` [U0126], the “suppression” value in series [1] was “not and no suppression”.

As to `COc1ccc2c(c1)c(C1=C(c3c[nH]c4ccccc34)C(=O)NC1=O)cn2CCCN(C)C` [Gö6983], the “suppression” value in series [1] is reported as “inhibited; also recorded: dose responsive suppression”. In addition, in series [1] (30-minute pretreatment, PMA 25 ng/mL six hours), the “concentration that suppressed APOBEC3B to background levels” value stood at 5 µM. For the same compound, the “morphological defects or viability issues” value in series [4] is given as “No morphological defects or viability issues”. For the compound `Cn1c2ccccc2c2c3c(c4c5ccccc5n(CCC#N)c4c21)CNC3=O` [Gö6976], the “suppression” value in series [1] is listed as “inhibited”.

For the compound `CC/C(=C(\c1ccccc1)c1ccc(OCCN(C)C)cc1)c1ccccc1` [tamoxifen], in series [5] (500 μg 5 days/week subcutaneous injection, APOBEC3B high and low lines, mice), the “tumor growth of MCF-7 derivative lines” value is “arrested the growth of both derivative lines for several months”. Besides, the “development of resistance, cells expressing high levels of APOBEC3B” value in series [5] (500 μg 5 days/week subcutaneous, year-long experiment) is “invariably developed resistance”. The “development of resistance, APOBEC3B low cell masses” value in series [5] (500 μg 5 days/week subcutaneous, year-long experiment, n=5 animals/condition) was “only one of the APOBEC3B low cell masses became resistant”. As for `CN(C)CCCn1cc(C2=C(c3c[nH]c4ccccc34)C(=O)NC2=O)c2ccccc21` [BIM-1, bisindolylmaleimide-1], the “suppression” value in series [1] is on record as “inhibited; also recorded: nearly identical dose dependent suppression”. Still for that read-out and setting: with `CC(C)C[C@@H](C=O)NC(=O)[C@H](CC(C)C)NC(=O)[C@H](CC(C)C)NC(=O)OCc1ccccc1` [MG132] (Cbz-Leu-Leu-Leu-aldehyde) the entry was “dose responsive inhibition; also recorded: decreased in a dose dependent manner”; with `Cc1ccc(S(=O)(=O)/C=C/C#N)cc1` [BAY 11-7082], “dose responsive inhibition; also recorded: strong dose-responsive drops”. Consider `C[C@@H]1C[C@@H]([C@H](O)CC2CC(=O)NC(=O)C2)C(=O)[C@@H](C)C1` [cyclohexamide], for which the “effect on kinetics of PMA-induced APOBEC3B upregulation” value in series [6] was “not affected”.
